In patent publication US7579012B2, “Targeting of triacylglycerol synthase gene for tuberculosis treatment” (University of Central Florida Research Foundation, Inc., priority 2005, dated 2009) one finds Vmax and Km data, which are given here for 2 molecules.

The assay concerns the target T1, TGS1 (Mycobacterium tuberculosis, UniProt P9WKC9).
T1 construct: made in house; host or cells: E. coli (total cell lysate, not purified)
T1 sequence (P9WKC9 1-463): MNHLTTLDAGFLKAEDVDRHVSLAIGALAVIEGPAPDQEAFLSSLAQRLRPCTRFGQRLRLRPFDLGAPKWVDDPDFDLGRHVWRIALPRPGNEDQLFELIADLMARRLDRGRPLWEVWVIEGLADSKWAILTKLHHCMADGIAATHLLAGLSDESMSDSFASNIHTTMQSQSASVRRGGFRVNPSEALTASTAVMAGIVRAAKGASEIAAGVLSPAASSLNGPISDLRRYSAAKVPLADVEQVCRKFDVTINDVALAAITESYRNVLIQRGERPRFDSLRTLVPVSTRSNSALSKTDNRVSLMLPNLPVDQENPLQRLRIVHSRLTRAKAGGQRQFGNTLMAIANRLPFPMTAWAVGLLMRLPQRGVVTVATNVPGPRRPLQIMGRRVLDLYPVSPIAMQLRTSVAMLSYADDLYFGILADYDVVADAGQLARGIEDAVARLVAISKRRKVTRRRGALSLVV
The assay is classed as biochemical, M. tuberculosis. The following applies: acyl-CoA substrate, pH 6.5, 37° C., 2 h; for Km: from linear double-reciprocal plots.

For orientation: Vmax means the rate approached at saturating substrate. A word on the Km: it is the concentration of substrate that gives half-maximal velocity.

On to `CCCCCCCC/C=C\CCCCCCCC(=O)SCCNC(=O)CCNC(=O)[C@H](O)C(C)(C)COP(=O)(O)OP(=O)(O)OC[C@H]1O[C@@H](n2cnc3c(N)ncnc32)[C@H](O)[C@@H]1OP(=O)(O)O` [C18:1-CoA, oleoyl (C18:1)-CoA], for which the Vmax was determined as 1.1 nmol/mg/min and the Km was 540 µM.
In the same order, the values of `CCCCCCCCCCCCCCCCCCCCCCCCCC(=O)SCCNC(=O)CCNC(=O)[C@H](O)C(C)(C)COP(=O)(O)OP(=O)(O)OC[C@H]1O[C@@H](n2cnc3c(N)ncnc32)[C@H](O)[C@@H]1OP(=O)(O)O` [C26:0-CoA, hexacosanoyl (C26:0)-CoA] are 2.4 nmol/mg/min and 306 µM.
